Data taken from patent US20250073185A1, “Composition Including Benzylaminoethanol Derivative as Active Ingredient for Prevention or Treatment of Metabolic Disease” (JLBIOTHERAPEUTICS, priority 2021, published 2025).

System: 3T3-L1 cells
Experiment: Cytotoxicity measurement (WST assay, EZ-Cytox)
Type: cell-based
Conditions: 3T3-L1 cells, 0.1, 1, 5, 10 and 25 μM, 48 hours
Experimental: After 48 hours, 10 μl of EZ-Cytox was added to each cell culture which was then incubated for 30 minutes, and the absorbance at 450 nm was measured using a microplate reader.

## OCCNCc1cc(Br)ccc1OCc1ccc(F)c(C(F)(F)F)c1 [AZ1, 2-(5-bromo-2-(4-fluoro-3-(trifluoromethyl)benzyloxy)benzylamino)ethanol]
  cytotoxicity (cell viability vs untreated cells): did not exhibit cytotoxicity
